The values that follow come from US20220033407A1, “N-(pyridin-2-ylsulfonyl)cyclopropanecarboxamide Derivatives and their Use in the Treatment of Disease” (NOVARTIS AG, priority 2018, published 2022).

Molecules are shown by their SMILES.

Assay [1] addresses T1, delF508-CFTR-HRP (Homo sapiens, UniProt P13569, DEL508-508).
T1 construct: expressed in transfected cells
As to the kind of experiment: Measurement of delF508-CFTR-HRP surface expression in CFBE41o- cells (HRP luminescence).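 On DelF508-CFTR-HRP Amax %: percent efficacy relative to a reference CFTR corrector compound.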 The conditions noted are these: for Emax: CFBE41o-, read-out: DelF508-CFTR-HRP Amax %; for EC50: mean of at least two replicates. The class given is cell-based. In outline: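 EC50 derived by logistic regression of triplicate surface-HRP luminescence, plate-normalized to the lowest-concentration median. Doxycycline (500 ng/mL, 48 h) induced delF508-CFTR-HRP in CFBE41o- cells; compounds then applied 24 h at 37° C, 10 μM top, 3-fold over 10 points.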

Assay [2] has as its target T2, delF508-CFTR (Homo sapiens, UniProt P13569, DEL508-508).
T2 construct: functional activity of the CFTR channel (Chloride ion transport) in patient derived primary human bronchial epithelial cells; host or cells: patient-derived primary human bronchial epithelial cells (HBECs), delF508-CFTR
As to the kind of experiment: delF508-CFTR functional activity in primary human bronchial epithelial cells (HBECs), Multi-Transepithelial Clamp Circuit (MTECC-24) assay, equivalent short circuit current. To be noted: primary CF HBECs; for MTECC24 CFHBEC-Amax %: relative to reference combination 2 μM 3-(6-(1-(2,2-difluorobenzo[d][1,3]dioxol-5-yl)cyclopropane-1-carboxamido)-3-methylpyridin-2-yl)benzoic acid (24 h) + 0.5 μM N-(2,4-di-tert-butyl-5-hydroxyphenyl)-4-oxo-1,4-dihydroquinoline-3-carboxamide; for EC50: test compound added 24 h before assay, potentiator (S)-3-amino-6-methoxy-N-(3,3,3-trifluoro-2-hydroxy-2-methylpropyl)-5-(trifluoromethyl)picolinamide present at assay, mean of at least two replicates, read-out: MTECC24 CFHBEC-EC50. The class given is cell-based. In outline: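 Compound acted as corrector on differentiated primary delF508-CFTR bronchial cultures, first 24 h basolaterally, then 45 min both sides before reading. Equivalent short circuit current was recorded during sequential forskolin and potentiator addition. EC50 came from 10-point, 1-in-3 dilution curves against the 0.1% DMSO baseline.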

T2 sequence (P13569 with tags, fused parts or gaps DEL508-508): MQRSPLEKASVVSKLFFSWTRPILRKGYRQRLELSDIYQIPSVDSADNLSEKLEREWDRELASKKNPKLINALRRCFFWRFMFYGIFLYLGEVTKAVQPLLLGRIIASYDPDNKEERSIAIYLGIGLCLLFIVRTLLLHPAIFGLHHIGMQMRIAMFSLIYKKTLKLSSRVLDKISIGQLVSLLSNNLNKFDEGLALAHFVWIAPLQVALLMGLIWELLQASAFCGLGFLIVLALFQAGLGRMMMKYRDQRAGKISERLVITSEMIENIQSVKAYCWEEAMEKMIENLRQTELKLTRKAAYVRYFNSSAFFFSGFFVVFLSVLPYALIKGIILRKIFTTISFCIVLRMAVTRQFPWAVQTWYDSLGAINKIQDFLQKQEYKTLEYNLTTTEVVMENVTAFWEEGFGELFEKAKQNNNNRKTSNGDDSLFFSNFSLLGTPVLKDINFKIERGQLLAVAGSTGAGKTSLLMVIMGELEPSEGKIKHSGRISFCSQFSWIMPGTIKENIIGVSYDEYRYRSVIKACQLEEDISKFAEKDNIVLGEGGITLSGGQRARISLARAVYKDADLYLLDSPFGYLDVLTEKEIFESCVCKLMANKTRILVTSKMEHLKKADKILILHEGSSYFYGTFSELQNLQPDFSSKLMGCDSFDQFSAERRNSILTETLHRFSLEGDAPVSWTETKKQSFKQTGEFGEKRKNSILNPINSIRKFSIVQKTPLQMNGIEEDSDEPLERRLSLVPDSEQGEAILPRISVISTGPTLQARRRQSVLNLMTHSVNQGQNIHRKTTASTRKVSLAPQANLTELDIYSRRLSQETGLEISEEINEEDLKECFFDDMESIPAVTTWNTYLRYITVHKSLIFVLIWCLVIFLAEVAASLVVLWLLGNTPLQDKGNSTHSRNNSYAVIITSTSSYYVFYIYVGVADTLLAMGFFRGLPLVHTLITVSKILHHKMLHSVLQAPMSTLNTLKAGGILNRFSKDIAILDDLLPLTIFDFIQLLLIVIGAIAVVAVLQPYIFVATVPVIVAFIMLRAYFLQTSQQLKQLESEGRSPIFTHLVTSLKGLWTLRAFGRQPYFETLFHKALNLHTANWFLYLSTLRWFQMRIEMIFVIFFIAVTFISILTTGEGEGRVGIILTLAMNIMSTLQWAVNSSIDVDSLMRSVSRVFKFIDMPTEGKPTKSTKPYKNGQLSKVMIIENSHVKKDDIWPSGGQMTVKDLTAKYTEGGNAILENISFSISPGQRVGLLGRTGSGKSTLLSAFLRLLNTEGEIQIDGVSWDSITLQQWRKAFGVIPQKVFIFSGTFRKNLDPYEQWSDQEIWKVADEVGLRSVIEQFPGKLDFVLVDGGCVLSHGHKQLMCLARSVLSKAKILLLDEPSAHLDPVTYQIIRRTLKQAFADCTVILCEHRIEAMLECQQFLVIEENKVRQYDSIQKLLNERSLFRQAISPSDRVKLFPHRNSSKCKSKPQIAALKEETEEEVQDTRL
T1 sequence (P13569 with tags, fused parts or gaps DEL508-508): as above

For `Cc1ccc(C2CCCCC2)c(OC2(C(=O)NS(=O)(=O)c3cccc(N4CCC(C)(NC(=O)C5CC5)CC4)n3)CC2)c1` [Example 2-10, 1-(2-Cyclohexyl-5-methylphenoxy)-N-((6-(4-(cyclopropanecarboxamido)-4-methylpiperidin-1-yl)pyridin-2-yl)sulfonyl)cyclopropanecarboxamide], in assay [1], the Emax was 327% and the EC50 was 1810 nM. Further, in assay [2], the “MTECC24 CFHBEC-Amax %” value was 56% and the EC50 was found to be 3 nM.
The matching figures for `O=C(NS(=O)(=O)c1cccc(N2CC[C@H](O)C2)n1)C1(Oc2cc(Cl)ccc2N2CCC3(CCC3)CC2)CC1` [Example 9-12, (S)-1-(5-Chloro-2-(7-azaspiro[3.5]nonan-7-yl)phenoxy)-N-((6-(3-hydroxypyrrolidin-1-yl)pyridin-2-yl)sulfonyl)cyclopropanecarboxamide]: 579%, 1330 nM, 160.7% and 776 nM.
In the same order, the values of `Cc1ccc(-c2cccc(C(F)(F)F)c2)c(OC2(C(=O)NS(=O)(=O)c3cccc(N4CCC(N)(C(F)(F)F)CC4)n3)CC2)c1` [Example 5-16, N-((6-(4-Amino-4-(trifluoromethyl)piperidin-1-yl)pyridin-2-yl)sulfonyl)-1-((4-methyl-3′-(trifluoromethyl)-[1,1′-biphenyl]-2-yl)oxy)cyclopropane-1-carboxamide] are 294%, 420 nM, 79% and 7 nM.
The matching figures for `COc1ccc(C2CCC(F)(F)CC2)c(OC2(C(=O)NS(=O)(=O)c3cccc(N4CCC[C@H](CO)C4)n3)CC2)c1` [Example 3-7, (S)-1-(2-(4,4-Difluorocyclohexyl)-5-methoxyphenoxy)-N-((6-(3-(hydroxymethyl)piperidin-1-yl)pyridin-2-yl)sulfonyl)cyclopropane-1-carboxamide]: 258%, 3410 nM, 51% and 35 nM.
Take `Cc1ccc(C2CCCCC2)c(OC2(C(=O)NS(=O)(=O)c3cccc(N(C)CC(C)O)n3)CC2)c1` (stereo not shown) [Example 2-48]: in assay [1], the Emax came to 620% and the midpoint of the response, the EC50, lay at 2020 nM. For the same compound, in assay [2], the “MTECC24 CFHBEC-Amax %” value is 93% and the EC50 was found to be 4 nM.
In the same order, the values of `Cc1ccc(C2CCCCC2)c(OC2(C(=O)NS(=O)(=O)c3cccc(N4CCN(c5ccccc5)CC4)n3)CC2)c1` [Example 2-54, 1-(2-Cyclohexyl-5-methylphenoxy)-N-((6-(4-phenylpiperazin-1-yl)pyridin-2-yl)sulfonyl)cyclopropane-1-carboxamide] are 513%, 650 nM, 70% and 14 nM.
The matching figures for `Cc1ccc(C2CCCCC2)c(OC2(C(=O)NS(=O)(=O)c3cccc(N4CCC(C)(C(=O)O)CC4)n3)CC2)c1` [Example 2-5, 1-(6-(N-(1-(2-cyclohexyl-5-methylphenoxy)cyclopropanecarbonyl)sulfamoyl)pyridin-2-yl)-4-methylpiperidine-4-carboxylic acid]: 213%, 3020 nM, 66% and 7 nM.
For `Cc1ccc(C2CCC3(CCCC3)OC2)c(OC2(C(=O)NS(=O)(=O)c3cccc(N4CCC(O)(c5ccc(Cl)cc5)CC4)n3)CC2)c1` (single isomer, unassigned) [Example 11-3-1, N-((6-(4-(4-chlorophenyl)-4-hydroxypiperidin-1-yl)pyridin-2-yl)sulfonyl)-1-(5-methyl-2-(6-oxaspiro[4.5]decan-8-yl)phenoxy)cyclopropane-1-carboxamide], in assay [1], the “DelF508-CFTR-HRP Amax %” value is 380.3% and the EC50 is 680 nM. In addition, in assay [2], the “MTECC24 CFHBEC-Amax %” value is 100.3% and the EC50 was found to be 117 nM.
As to `Cc1ccc(C2CCCCC2)c(OC2(C(=O)NS(=O)(=O)c3cccc(N)n3)CC2)c1` [Example 1-1, N-((6-Aminopyridin-2-yl)sulfonyl)-1-(2-cyclohexyl-5-methylphenoxy)cyclopropane-1-carboxamide], in assay [1], the Emax was 421% and the EC50 turned out to be 2010 nM. In addition, in assay [2], the “MTECC24 CFHBEC-Amax %” value is 91% and the EC50 came to 15 nM.
In the same order, the values of `Cc1ccc(C2CCCCC2)c(OC2(C(=O)NS(=O)(=O)c3cccc(N4CCN(c5ccc(F)cc5)CC4)n3)CC2)c1` [Example 2-55, 1-(2-Cyclohexyl-5-methylphenoxy)-N-((6-(4-(4-fluorophenyl)piperazin-1-yl)pyridin-2-yl)sulfonyl)cyclopropane-1-carboxamide] are 512%, 640 nM, 91% and 13 nM.
The matching figures for `Cc1ccc(C2(C(F)(F)F)CC2)c(OC2(C(=O)NS(=O)(=O)c3cccc(N)n3)CCCC2)c1` [Example 1-8, N-((6-Aminopyridin-2-yl)sulfonyl)-1-(5-methyl-2-(1-(trifluoromethyl)cyclopropyl)phenoxy)cyclopentane-1-carboxamide]: 165%, 2380 nM, 46% and 6 nM.
The matching figures for `Cc1ccc(-c2cccc(OC(F)(F)F)c2)c(OC2(C(=O)NS(=O)(=O)c3cccc(N4CC(C)(O)C4)n3)CC2)c1` [Example 5-8, N-((6-(3-Hydroxy-3-methylazetidin-1-yl)pyridin-2-yl)sulfonyl)-1-((4-methyl-3′-(trifluoromethoxy)-[1,1′-biphenyl]-2-yl)oxy)cyclopropane-1-carboxamide]: 371%, 2480 nM, 57% and 6 nM.
`O=C(NS(=O)(=O)c1cccc(N2CC[C@H](O)C2)n1)C1(Oc2cc(Cl)ccc2NC2CCC(C(F)(F)F)CC2)CC1` (stereo partly drawn) [Example 9-19, (S)-1-(5-Chloro-2-((4-(trifluoromethyl)cyclohexyl)amino)phenoxy)-N-((6-(3-hydroxypyrrolidin-1-yl)pyridin-2-yl)sulfonyl)cyclopropanecarboxamide]: in assay [1], the Emax amounted to 594% and a half-maximal effect (EC50) was put at 2420 nM. In assay [2], the “MTECC24 CFHBEC-Amax %” value stood at 161.2% and the half-maximal effective concentration (EC50) amounted to 749 nM.
In the same order, the values of `Cc1ccc(C2CCCCC2)c(OC2(C(=O)NS(=O)(=O)c3cccc(NC[C@H](C)O)n3)CC2)c1` [Example 2-47, (S)-1-(2-Cyclonexyl-5-methylphenoxy)-N-((6-((2-hydroxypropyl)amino)pyridin-2-yl)sulfonyl)cyclopropane-1-carboxamide] are 747%, 2420 nM, 97% and 6 nM.
The matching figures for `Cc1ccc(-c2ccc(C(F)(F)F)cc2)c(OC2(C(=O)NS(=O)(=O)c3cccc(N4CC[C@H](O)C4)n3)CC2)c1` [Example 5-10, (S)—N-((6-(3-Hydroxypyrrolidin-1-yl)pyridin-2-yl)sulfonyl)-1-((4-methyl-4′-(trifluoromethyl)-[1,1′-biphenyl]-2-yl)oxy)cyclopropane-1-carboxamide]: 416%, 1210 nM, 114% and 26 nM.
The matching figures for `COC(=O)C1CCN(c2cccc(S(=O)(=O)NC(=O)C3(Oc4cc(C)ccc4C4CCCCC4)CC3)n2)CC1` [Example 2-4, Methyl 1-(6-(N-(1-(2-cyclohexyl-5-methylphenoxy)cyclopropane-1-carbonyl)sulfamoyl)pyridin-2-yl)piperidine-4-carboxylate]: 808%, 1290 nM, 91% and 10 nM.
Regarding `Cc1ccc(N2CCC3(CC2)CC3)c(OC2(C(=O)NS(=O)(=O)c3cccc(N4CC[C@H](O)C4)n3)CC2)c1` [Example 9-11, (S)—N-((6-(3-Hydroxypyrrolidin-1-yl)pyridin-2-yl)sulfonyl)-1-(5-methyl-2-(6-azaspiro[2.5]octan-6-yl)phenoxy)cyclopropanecarboxamide], in assay [1], the Emax was 580% and a half-maximal response (EC50) required 1640 nM. For the same compound, in assay [2], the “MTECC24 CFHBEC-Amax %” value is 133.4% and the EC50 amounted to 396 nM.
In the same order, the values of `Cc1ccc(C2CC=CCC2)c(OC2(C(=O)NS(=O)(=O)c3cccc(N4CC(C)(O)C4)n3)CC2)c1` (stereo not shown) [Example 4-22, N-((6-(3-hydroxy-3-methylazetidin-1-yl)pyridin-2-yl)sulfonyl)-1-((4-methyl-1′,2′,3′,6′-tetrahydro-[1,1′-biphenyl]-2-yl)oxy)cyclopropanecarboxamide] are 453%, 3670 nM, 62% and 12 nM.
In the same order, the values of `C[C@]1(O)CCN(c2cccc(S(=O)(=O)NC(=O)C3(Oc4cc(Cl)ccc4C4CC5(CCC5)C4)CC3)n2)C1` (single isomer, unassigned) [Example 7-2-1] are 674%, 1420 nM, 214.4% and 289 nM.
